Experimental findings from publication PMC5218480 (PLoS ONE, 2017) are described below.

The test relates to MV-4-11 cells. Description: Gene expression microarray analysis (Affymetrix PrimeView) and GSEA. Conditions: MV-4-11 cells, 48 hours. The arrangement: RFU PODN (11730768_x_at) / Fold change /veh PODN (11730768_x_at) / RFU LINC00158 (11744669_a_at) / Fold change /veh LINC00158 (11744669_a_at) / RFU DUSP10 (11751237_a_at) / Fold change /veh DUSP10 (11751237_a_at) / RFU ID3 (11757404_x_at) / Fold change /veh ID3 (11757404_x_at) / RFU PLEKHG5 (11737974_s_at) / Fold change /veh PLEKHG5 (11737974_s_at) / RFU LRRC4B (11730491_at) / Fold change /veh LRRC4B (11730491_at) / RFU GIMAP4 (11747438_a_at) / Fold change /veh GIMAP4 (11747438_a_at) / RFU KRT8 (11758183_x_at) / Fold change /veh KRT8 (11758183_x_at) / RFU CNN1 (11734310_a_at) / Fold change /veh CNN1 (11734310_a_at) / RFU VPS37D (11726825_at) / Fold change /veh VPS37D (11726825_at) / RFU C10orf10 (11716522_x_at) / Fold change /veh C10orf10 (11716522_x_at) / RFU KIR2DL2 /// KIR2DL4 /// KIR2DL5A /// KIR2DL5B /// KIR2DS1 /// KIR2DS2 /// KIR2DS3 /// KIR2DS4 /// KIR3DL3 /// KIR3DL3 /// KIR3DS1 (11738374_at) / Fold change /veh KIR2DL2 /// KIR2DL4 /// KIR2DL5A /// KIR2DL5B /// KIR2DS1 /// KIR2DS2 /// KIR2DS3 /// KIR2DS4 /// KIR3DL3 /// KIR3DL3 /// KIR3DS1 (11738374_at) / RFU C1QL1 (11718748_at) / Fold change /veh C1QL1 (11718748_at) / RFU TMPRSS4 (11747572_a_at) / Fold change /veh TMPRSS4 (11747572_a_at) / RFU HAMP (11756126_x_at) / Fold change /veh HAMP (11756126_x_at) / RFU RNFT2 (11725882_a_at) / Fold change /veh RNFT2 (11725882_a_at) / RFU NR4A2 (11747474_a_at) / Fold change /veh NR4A2 (11747474_a_at) / RFU ABCC12 (11746883_a_at) / Fold change /veh ABCC12 (11746883_a_at) / RFU TMEM136 (11760407_x_at) / Fold change /veh TMEM136 (11760407_x_at) / RFU CLDN22 /// WWC2 (11732394_at) / Fold change /veh CLDN22 /// WWC2 (11732394_at) / RFU HLA-DPB1 (11760878_x_at) / Fold change /veh HLA-DPB1 (11760878_x_at) / RFU SPINT1 (11716480_a_at) / Fold change /veh SPINT1 (11716480_a_at) / RFU GAP43 (11754022_s_at) / Fold change /veh GAP43 (11754022_s_at) / RFU A4GNT (11735810_at) / Fold change /veh A4GNT (11735810_at) / RFU PRB3 (11715151_x_at) / Fold change /veh PRB3 (11715151_x_at) / RFU TUBB4B (11761932_at) / Fold change /veh TUBB4B (11761932_at) / RFU CAPN14 (11732068_a_at) / Fold change /veh CAPN14 (11732068_a_at) / RFU TMCC2 (11721928_a_at) / Fold change /veh TMCC2 (11721928_a_at) / RFU IRGQ (11745062_a_at) / Fold change /veh IRGQ (11745062_a_at) / RFU FAM174B (11720279_a_at) / Fold change /veh FAM174B (11720279_a_at) / RFU TMPRSS4 (11748680_a_at) / Fold change /veh TMPRSS4 (11748680_a_at) / RFU FAM212B (11763350_a_at) / Fold change /veh FAM212B (11763350_a_at) / RFU PLEKHG5 (11743358_a_at) / Fold change /veh PLEKHG5 (11743358_a_at) / RFU ZSCAN30 (11745921_a_at) / Fold change /veh ZSCAN30 (11745921_a_at) / RFU CMKLR1 (11741424_a_at) / Fold change /veh CMKLR1 (11741424_a_at) / RFU LOC101060620 /// MAPK8IP1 (11723275_at) / Fold change /veh LOC101060620 /// MAPK8IP1 (11723275_at) / RFU SPTSSB (11747773_x_at) / Fold change /veh SPTSSB (11747773_x_at) / RFU PRSS12 (11739890_at) / Fold change /veh PRSS12 (11739890_at) / RFU BIN1 (11741810_x_at) / Fold change /veh BIN1 (11741810_x_at) / RFU WNT11 (11732464_a_at) / Fold change /veh WNT11 (11732464_a_at) / RFU C10orf10 (11716521_a_at) / Fold change /veh C10orf10 (11716521_a_at) / RFU C5orf56 (11738089_at) / Fold change /veh C5orf56 (11738089_at) / RFU CYB561 (11721691_x_at) / Fold change /veh CYB561 (11721691_x_at) / RFU ANKRD19P (11752326_a_at) / Fold change /veh ANKRD19P (11752326_a_at) / RFU OR2T12 /// OR2T33 /// OR2T8 (11738714_s_at) / Fold change /veh OR2T12 /// OR2T33 /// OR2T8 (11738714_s_at) / RFU VCAN (11748164_a_at) / Fold change /veh VCAN (11748164_a_at) / RFU JSRP1 (11732532_at) / Fold change /veh JSRP1 (11732532_at) / RFU KRTAP10-11 (11738290_x_at) / Fold change /veh KRTAP10-11 (11738290_x_at) / RFU MYO3A (11730013_a_at) / Fold change /veh MYO3A (11730013_a_at) / RFU EBF3 (11725865_a_at) / Fold change /veh EBF3 (11725865_a_at) / RFU CAMK2N1 (11719241_x_at) / Fold change /veh CAMK2N1 (11719241_x_at) / RFU C5orf56 (11738088_a_at) / Fold change /veh C5orf56 (11738088_a_at) / RFU OLFML3 (11715873_a_at) / Fold change /veh OLFML3 (11715873_a_at) / RFU LOC100653217 /// NTM (11731650_a_at) / Fold change /veh LOC100653217 /// NTM (11731650_a_at) / RFU MAPK11 (11762145_a_at) / Fold change /veh MAPK11 (11762145_a_at) / RFU FIZ1 (11724087_x_at) / Fold change /veh FIZ1 (11724087_x_at) / RFU OASL (11726364_x_at) / Fold change /veh OASL (11726364_x_at) / RFU SOX15 (11748057_x_at) / Fold change /veh SOX15 (11748057_x_at) / RFU CD79A (11719716_a_at) / Fold change /veh CD79A (11719716_a_at) / RFU HIST1H1D (11736915_at) / Fold change /veh HIST1H1D (11736915_at) / RFU CASKIN2 (11723855_a_at) / Fold change /veh CASKIN2 (11723855_a_at) / RFU LOC730098 (11760151_x_at) / Fold change /veh LOC730098 (11760151_x_at) / RFU OR4N2 (11742367_at) / Fold change /veh OR4N2 (11742367_at) / RFU PRRT2 (11749266_a_at) / Fold change /veh PRRT2 (11749266_a_at) / RFU SNX32 (11753110_a_at) / Fold change /veh SNX32 (11753110_a_at) / RFU CDHR5 (11726645_a_at) / Fold change /veh CDHR5 (11726645_a_at) / RFU RCAN1 (11760418_a_at) / Fold change /veh RCAN1 (11760418_a_at) / RFU FAM167A (11723789_a_at) / Fold change /veh FAM167A (11723789_a_at) / RFU FAM26E (11764081_at) / Fold change /veh FAM26E (11764081_at) / RFU ISYNA1 (11749810_s_at) / Fold change /veh ISYNA1 (11749810_s_at) / RFU ACY1 (11761880_at) / Fold change /veh ACY1 (11761880_at) / RFU 11764098_at / Fold change /veh 11764098_at / RFU SAMD14 (11745864_x_at) / Fold change /veh SAMD14 (11745864_x_at) / RFU NPB (11741838_a_at) / Fold change /veh NPB (11741838_a_at) / RFU TMPRSS6 (11731388_a_at) / Fold change /veh TMPRSS6 (11731388_a_at) / RFU KRTAP10-2 (11738614_at) / Fold change /veh KRTAP10-2 (11738614_at) / RFU ARHGAP8 /// PRR5-ARHGAP8 (11727945_x_at) / Fold change /veh ARHGAP8 /// PRR5-ARHGAP8 (11727945_x_at) / RFU KRTAP5-7 /// NADSYN1 (11734609_at) / Fold change /veh KRTAP5-7 /// NADSYN1 (11734609_at) / RFU RASL12 (11751679_a_at) / Fold change /veh RASL12 (11751679_a_at) / RFU CDKN2B (11736163_a_at) / Fold change /veh CDKN2B (11736163_a_at) / RFU PRF1 (11729649_at) / Fold change /veh PRF1 (11729649_at) / RFU, ZNF638 /// ZNF638-IT1 / Fold change vs veh, ZNF638 /// ZNF638-IT1 / RFU, PANK3 / Fold change vs veh, PANK3 / RFU, SH3YL1 / Fold change vs veh, SH3YL1 / RFU, ZEB2 / Fold change vs veh, ZEB2 / RFU, NRIP1 / Fold change vs veh, NRIP1 / RFU, PTTG1IP / Fold change vs veh, PTTG1IP / RFU, CAPN2 / Fold change vs veh, CAPN2 / RFU, MED14 / Fold change vs veh, MED14 / RFU, SNORA58 / Fold change vs veh, SNORA58 / RFU, C1orf63 / Fold change vs veh, C1orf63 / RFU, LRRFIP1 / Fold change vs veh, LRRFIP1 / RFU, NDUFAF7 / Fold change vs veh, NDUFAF7 / RFU, SLC12A2 / Fold change vs veh, SLC12A2 / RFU, IBTK / Fold change vs veh, IBTK / RFU, ESF1 / Fold change vs veh, ESF1 / Fold change vs veh, TMEM50B / RFU, TAOK1 / Fold change vs veh, TAOK1 / RFU, ACBD3 / Fold change vs veh, ACBD3 / RFU, TMA16 / Fold change vs veh, TMA16 / RFU, RWDD3 / Fold change vs veh, RWDD3 / RFU, BCAT1 / Fold change vs veh, BCAT1 / RFU, EDEM3 / Fold change vs veh, EDEM3 / RFU, TMEM33 / Fold change vs veh, TMEM33 / RFU, WDR75 / Fold change vs veh, WDR75 / RFU, AHCTF1 / Fold change vs veh, AHCTF1 / RFU, TFRC / Fold change vs veh, TFRC / RFU, ZDHHC17 / Fold change vs veh, ZDHHC17 / RFU, NOM1 / Fold change vs veh, NOM1 / RFU, ARL8B / Fold change vs veh, ARL8B / RFU, ZBTB11 / Fold change vs veh, ZBTB11 / RFU, TAMM41 / Fold change vs veh, TAMM41 / RFU, KIAA1704 /// LOC100996395 / Fold change vs veh, KIAA1704 /// LOC100996395 / RFU, ING1 / Fold change vs veh, ING1 / RFU, TRMT61B / Fold change vs veh, TRMT61B / RFU, FUBP3 / Fold change vs veh, FUBP3 / RFU, TP53 / Fold change vs veh, TP53 / RFU, TNKS2 / Fold change vs veh, TNKS2 / RFU, ZFP14 / Fold change vs veh, ZFP14 / RFU, ACTR2 / Fold change vs veh, ACTR2 / RFU, PPP3R1 / Fold change vs veh, PPP3R1 / RFU, PIK3R1 / Fold change vs veh, PIK3R1 / RFU, HNRNPA1 / Fold change vs veh, HNRNPA1 / RFU, RNF170 / Fold change vs veh, RNF170 / RFU, ZNF28 / Fold change vs veh, ZNF28 / RFU, RNGTT / Fold change vs veh, RNGTT / RFU, OGT / Fold change vs veh, OGT / RFU, BRD1 / Fold change vs veh, BRD1 / RFU, MARS / Fold change vs veh, MARS / RFU, ZNF655 / Fold change vs veh, ZNF655 / RFU, FAHD1 / Fold change vs veh, FAHD1 / RFU, BDP1 / Fold change vs veh, BDP1 / RFU, LRRCC1 / Fold change vs veh, LRRCC1 / RFU, ARID1A / Fold change vs veh, ARID1A / RFU, ZNF146 / Fold change vs veh, ZNF146 / RFU, ZNF330 / Fold change vs veh, ZNF330 / RFU, GPN3 / Fold change vs veh, GPN3 / RFU, C9orf123 / Fold change vs veh, C9orf123 / RFU, N4BP2L2 / Fold change vs veh, N4BP2L2 / RFU, ARFIP1 / Fold change vs veh, ARFIP1 / RFU, FAM179B / Fold change vs veh, FAM179B / RFU, BCL10 / Fold change vs veh, BCL10 / RFU, UHRF1BP1L / Fold change vs veh, UHRF1BP1L / RFU, BET1 / Fold change vs veh, BET1 / RFU, CNOT2 / Fold change vs veh, CNOT2 / RFU, ZNF268 / Fold change vs veh, ZNF268 / Fold change vs veh, ZNF507 / RFU, DGCR2 / Fold change vs veh, DGCR2 / RFU, WDSUB1 / Fold change vs veh, WDSUB1 / Fold change vs veh, HSP90B1 /// MIR3652 / RFU, ADSS / Fold change vs veh, ADSS / RFU, GK / Fold change vs veh, GK / RFU, ZNF148 / Fold change vs veh, ZNF148 / RFU, TAF9 / Fold change vs veh, TAF9 / RFU, SLC1A5 / Fold change vs veh, SLC1A5 / RFU, SLMO2 / Fold change vs veh, SLMO2 / RFU, ABCC4 / Fold change vs veh, ABCC4 / RFU, LOC101060439 /// RAP1B / Fold change vs veh, LOC101060439 /// RAP1B / RFU, RFX7 / Fold change vs veh, RFX7 / RFU, GTPBP10 / Fold change vs veh, GTPBP10 / RFU, CNEP1R1 / Fold change vs veh, CNEP1R1 / RFU, BIVM-ERCC5 /// ERCC5 / Fold change vs veh, BIVM-ERCC5 /// ERCC5 / RFU, ILF3 / Fold change vs veh, ILF3 / RFU 11762660_at / Fold change /veh 11762660_at / RFU VCAN (11757783_s_at) / Fold change /veh VCAN (11757783_s_at) / RFU DDX43 (11728927_at) / Fold change /veh DDX43 (11728927_at) / RFU KRT8 (11758188_x_at) / Fold change /veh KRT8 (11758188_x_at) / RFU NKD1 (11759106_at) / Fold change /veh NKD1 (11759106_at) / RFU SRD5A1 (11742802_a_at) / Fold change /veh SRD5A1 (11742802_a_at) / RFU TPSAB1 /// TPSB2 (11721975_s_at) / Fold change /veh TPSAB1 /// TPSB2 (11721975_s_at) / RFU GSTM3 (11746129_a_at) / Fold change /veh GSTM3 (11746129_a_at) / RFU IL23R (11737362_x_at) / Fold change /veh IL23R (11737362_x_at) / RFU TMEM51 (11727254_a_at) / Fold change /veh TMEM51 (11727254_a_at) / RFU PIWIL2 (11732686_x_at) / Fold change /veh PIWIL2 (11732686_x_at) / RFU ORM1 (11744905_x_at) / Fold change /veh ORM1 (11744905_x_at) / RFU CCDC152 (11743942_at) / Fold change /veh CCDC152 (11743942_at) / RFU ECM1 (11717891_a_at) / Fold change /veh ECM1 (11717891_a_at) / RFU IL23R (11748794_a_at) / Fold change /veh IL23R (11748794_a_at) / RFU TNFAIP8L3 (11732012_x_at) / Fold change /veh TNFAIP8L3 (11732012_x_at) / RFU MBOAT4 (11741988_at) / Fold change /veh MBOAT4 (11741988_at) / RFU 11764193_at / Fold change /veh 11764193_at / RFU TMEM53 (11763286_at) / Fold change /veh TMEM53 (11763286_at) / RFU MAGEB2 (11727129_at) / Fold change /veh MAGEB2 (11727129_at) / RFU TMEM200A (11744735_a_at) / Fold change /veh TMEM200A (11744735_a_at) / RFU CCDC152 (11751479_a_at) / Fold change /veh CCDC152 (11751479_a_at) / RFU FAM211A (11726209_a_at) / Fold change /veh FAM211A (11726209_a_at) / RFU RGS16 (11746705_a_at) / Fold change /veh RGS16 (11746705_a_at) / RFU VCAN (11755009_s_at) / Fold change /veh VCAN (11755009_s_at) / RFU RHOB (11743442_s_at) / Fold change /veh RHOB (11743442_s_at) / RFU RGS16 (11720943_a_at) / Fold change /veh RGS16 (11720943_a_at) / RFU RGS16 (11720944_at) / Fold change /veh RGS16 (11720944_at) / RFU, VPS4B / Fold change vs veh, VPS4B / RFU, CREB1 / Fold change vs veh, CREB1 / RFU, DNAJC13 / Fold change vs veh, DNAJC13 / RFU, GNAQ / Fold change vs veh, GNAQ / RFU, CDK5R1 / Fold change vs veh, CDK5R1 / RFU, ZRANB3 / Fold change vs veh, ZRANB3 / RFU, CUL4A / Fold change vs veh, CUL4A / RFU, CCNY / Fold change vs veh, CCNY / RFU, UFL1 / Fold change vs veh, UFL1 / RFU, COG3 / Fold change vs veh, COG3 / RFU, DIAPH2 / Fold change vs veh, DIAPH2 / RFU, SKA2 / Fold change vs veh, SKA2 / RFU, AFF3 / Fold change vs veh, AFF3 / RFU, LMF1 / Fold change vs veh, LMF1 / RFU, IPO11 / Fold change vs veh, IPO11 / RFU, DFFB / Fold change vs veh, DFFB / RFU, FOXP1 / Fold change vs veh, FOXP1 / RFU, CARD8 / Fold change vs veh, CARD8 / RFU, STRN3 / Fold change vs veh, STRN3 / RFU, ADK / Fold change vs veh, ADK / RFU, RASSF2 / Fold change vs veh, RASSF2 / RFU, WIPF1 / Fold change vs veh, WIPF1 / RFU, LARP1B / Fold change vs veh, LARP1B / RFU, RASA1 / Fold change vs veh, RASA1 / RFU, RB1 / Fold change vs veh, RB1 / RFU, PPFIA1 / Fold change vs veh, PPFIA1 / RFU, MAT2A / Fold change vs veh, MAT2A / RFU, CCT5 / Fold change vs veh, CCT5 / RFU, WDR92 / Fold change vs veh, WDR92 / RFU, CUX1 / Fold change vs veh, CUX1 / RFU, TTC7A / Fold change vs veh, TTC7A / RFU, TMEM135 / Fold change vs veh, TMEM135 / RFU, DEPTOR / Fold change vs veh, DEPTOR / RFU, CPM / Fold change vs veh, CPM / RFU, DNAJB6 / Fold change vs veh, DNAJB6 / RFU, CACNA2D3 / Fold change vs veh, CACNA2D3 / RFU, DTX4 / Fold change vs veh, DTX4 / RFU, TFCP2 / Fold change vs veh, TFCP2 / RFU, GMCL1 /// GMCL1P1 / Fold change vs veh, GMCL1 /// GMCL1P1 / RFU, AEBP2 / Fold change vs veh, AEBP2 / RFU, SNHG1 /// SNORD22 /// SNORD25 /// SNORD26 /// SNORD27 /// SNORD28 /// SNORD29 /// SNORD31 / Fold change vs veh, SNHG1 /// SNORD22 /// SNORD25 /// SNORD26 /// SNORD27 /// SNORD28 /// SNORD29 /// SNORD31 / Fold change (Aza/veh), C12orf56 (ProbeSet 11735607_a_at) / Fold change (ACY-1035/veh), C12orf56 (ProbeSet 11735607_a_at) / Fold change (Aza/veh), FGFR1OP (ProbeSet 11751329_s_at) / Fold change (ACY-1035/veh), FGFR1OP (ProbeSet 11751329_s_at) / Fold change (Aza/veh), VPS36 (ProbeSet 11739960_a_at) / Fold change (ACY-1035/veh), VPS36 (ProbeSet 11739960_a_at) / RFU SYPL1 (11715823_x_at) / Fold change /veh SYPL1 (11715823_x_at) / RFU IGFBP7 (11715501_s_at) / Fold change /veh IGFBP7 (11715501_s_at) / RFU REEP3 (11722064_at) / Fold change /veh REEP3 (11722064_at) / RFU IGLL1 (11728026_x_at) / Fold change /veh IGLL1 (11728026_x_at): dose or concentration left out as unconfirmed. Format: cell-based, human.

Consider `Nc1ncn([C@@H]2O[C@H](CO)[C@@H](O)[C@H]2O)c(=O)n1` [azacitidine], for which the “Fold change /veh ZSCAN30 (11745921_a_at)” value stood at 1.18.
